Measured values reported in patent US12691119B2, “Methods for treating covid-19 with sepiapterin” (PTC Therapeutics MP, Inc., priority 2021, dated 2026).

Columns and labels:
OT-I cells = assay: OT-I splenocyte transfer with ova peptide-pulsed BMDCs; proliferation and IFN-γ by flow cytometry; assay type: in vivo, C57/B16 mice; settings: mice
Experimental: FIG. 3A is a graph showing the proliferation and activation of CD8^+ T cells in the presence of sepiapterin in vivo.
FIG. 3B is a graph showing cytokine (IFN-γ) expression in cells in the presence of sepiapterin in vivo.
2×10^6 OT-I splenocytes were injected into C57/B16 mice via tail vein injection. 24 hours later, 1×10^6 ova peptide-pulsed bone marrow derived dendritic cells were injected into these mice subcutaneously. Starting on day 3, mice were given 10 mg/kg SP orally for 3 consecutive days. On day 6, mice were sacrificed and spleens were harvested and stimulated for 6 hours with brefeldin A (BFA), phorbol myristate acetate (PMA), and ionomycin. OT-I proliferation (FIG. 3A) and IFN-γ expression (FIG. 3B) were assessed via flow cytometry.

[1] = Stability on exposure to air; assay type: physicochemical; settings: exposed to air
Text: Accordingly, pharmaceutical compositions of the invention may include antioxidants. The antioxidant may minimize the oxidative degradation of sepiapterin. […]

[2] = healthy volunteers and subjects with Phenylketonuria, Primary BH4 Deficiencies, or diabetic gastroparesis; cited from earlier work
[3] = tested on: CD8+ T cells (pmel splenocytes); assay: CFSE-labeled pmel splenocytes co-cultured with gp100-pulsed BMDCs; CFSE dilution by flow cytometry, cytokines by ELISA; assay type: cell-based; settings: in vitro
Text: FIG. 2A is a graph showing the proliferation and activation of CD8^+ T cells in the presence of sepiapterin in vitro.
FIG. 2B is a graph showing cytokine (interferon gamma, IFN-γ) expression in cells in the presence of sepiapterin in vitro.
FIG. 2C is a graph showing cytokine (interleukin 2, IL-2) expression in cells in the presence of sepiapterin in vitro.
1×10^5 pmel splenocytes were labeled with carboxyfluorescein succinimidyl ester (CFSE) and then co-cultured, at either a 1:10 or 1:40 ratio (splenocytes:BMDC), with gp100-pulsed bone marrow derived dendritic cells (BMDCs) for 3 days. Sepiapterin (SP) was added after BMDCs were added to splenocytes. After incubation, CFSE dilution was measured via flow cytometry (FIG. 2A) and cytokine expression was measured via ELISA (FIGS. 2B and 2C). No DC=no dendritic cells, UT=untreated. […] The enhanced secretion of IFN-γ in FIG. 2B is a result of the higher number of T cells present in wells treated with SP.

[4] = tested on: cytokine expression in the lungs; assay: Intranasal LPS model of ARDS, cytokine expression in BAL fluid by ELISA; assay type: in vivo; settings: mice, 10 mg/kg per day oral gavage for 3 days, then 40 ug LPS intranasally; BAL 16-18 hours later; FIG. 1
Experimental: FIG. 1 is a graph showing cytokine expression in the lungs of mice treated with intranasal lipopolysaccharide (LPS) with or without 10 mg/kg sepiapterin (SP) treatment.
This is in line with the therapeutic effect of SP in a Dextran Sulfate Sodium//Azoxymethane model of colitis/colon cancer.
Mice were treated with either 10 mg/kg sepiapterin (SP) per day delivered via oral gavage or nothing for 3 days. Mice were then treated with 40 ug lipopolysaccharide (LPS) inhaled intranasally. 16-18 hours later, bronchoalveolar lavage (BAL) fluid was collected and assess for cytokine expression via ELISA. Untreated (UT) (n=1), LSP (n=3), LSP+SP (n=2). (FIG. 1).

[5] = tested on: innate immune cell mediated inflammation in the colon; settings: caused by DSS in the colon, preclinical models; cited from earlier work

C[C@H](O)C(=O)C1=Nc2c(nc(N)[nH]c2=O)NC1 [sepiapterin, (S)-2-amino-6-(2-hydroxypropanoyl)-7,8-dihydropteridin-4(3H)-one]
OT-I proliferation (OT-I cells; 10 mg/kg orally for 3 consecutive days from day 3, spleens day 6, FIG. 3A): enhanced proliferation of OT-I cells | T cell activation and IFN-γ secretion (OT-I cells; 10 mg/kg orally for 3 consecutive days, spleens stimulated 6 hours with BFA, PMA, ionomycin, FIG. 3B): minimal effect on T cell activation and IFN-γ secretion | oxidation stability [1]: prone to rapid oxidation when exposed to air | tolerability [2]: well tolerated | proliferation of CD8+ T cells (CFSE dilution) ([3]; 3 days co-culture, 1:10 or 1:40 splenocytes:BMDC, FIG. 2A): enhanced proliferation of anti-viral CD8^+ T cells in a dose dependent manner | T cell activation and IFN-γ secretion ([3]; ELISA, FIGS. 2B and 2C): without directly affecting T cell activation and IFN-γ secretion | cytokine expression in bronchoalveolar lavage (BAL) fluid [4]: lower levels of cytokine expression | innate immune cell mediated inflammation [5]: profoundly suppress innate immune cell mediated inflammation
